The target of this experiment is β2AR (Homo sapiens, UniProt P07550). Put plainly: cAMP measurement by ELISA in HEK 293 cells stably overexpressing β2AR. It is filed as cell-based. As for the experimental part:
Schematic of screening methodologies for cAMP production and β-arrestin binding. Cells were treated with the unbiased beta-agonist isoproterenol (ISO)±test compounds. The primary high throughput screen utilized a luciferase-based cAMP biosensor, GLOSENSORTM (Promega), and an enzyme complementation-based assay, […]® (DiscoveRx). Independent secondary screening utilized a cAMP ELISA and BRET for β-arrestin recruitment. […] Secondary screen for cAMP production by ELISA. […] Cells were lysed and cAMP production was measured. […] Dose response curve for DFPQ as measured by BRET. […] Data for dose response curve was taken 12 min post ISO addition. n=3. […] Cells were lysed and cAMP production was measured by ELISA. […] Cells were read every three minutes for 18 minutes on a PolarStar Optima plate reader (BMG) to establish peak signal. […] Luminescence was determined at room temperature (23-25° C.) on a PolarStar Optima plate reader (BMG). […] Relative assay bias was calculated from the ratio of normalized cAMP and arrestin recruitment responses. […] BRET was measured using a Tecan Infinite F500 microplate reader. […] Bound [35 S]GTPγS was collected by rapid filtration on GF/B filters, washed 4 times with 4 ml of cold GTPγS wash buffer and analyzed by liquid scintillation counting. […] Immunoprecipitated proteins were separated by SDS-PAGE and analyzed by western blot using a β2AR C-terminal tail or phospho-specific antibody. […]

Sequence of β2AR (P07550 whole entry): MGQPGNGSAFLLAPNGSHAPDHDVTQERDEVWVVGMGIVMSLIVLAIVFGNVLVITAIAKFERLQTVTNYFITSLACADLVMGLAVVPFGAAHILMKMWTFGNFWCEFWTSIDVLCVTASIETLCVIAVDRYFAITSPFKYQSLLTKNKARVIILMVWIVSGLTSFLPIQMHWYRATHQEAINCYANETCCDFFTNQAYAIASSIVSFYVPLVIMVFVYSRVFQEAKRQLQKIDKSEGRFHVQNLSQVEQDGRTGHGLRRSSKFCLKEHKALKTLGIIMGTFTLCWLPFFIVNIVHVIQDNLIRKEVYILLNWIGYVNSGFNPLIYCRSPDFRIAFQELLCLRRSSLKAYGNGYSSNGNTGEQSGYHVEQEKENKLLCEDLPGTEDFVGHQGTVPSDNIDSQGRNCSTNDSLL

With `Fc1ccc(Nc2nc(NC3CCCCC3)c3ccccc3n2)cc1F` [DFPQ, N^4-cyclohexyl-N^2-(3,4-difluorophenyl)quinazoline-2,4-diamine], the “effect on ISO-stimulated cAMP production” value (10 μM DFPQ, 1 μM ISO 10 min, FIG. 1B) was “no effect”. For the same molecule, the “effect on ISO dose response curves, cAMP production readout” value (increasing concentrations up to 10 μM DFPQ, FIG. 1E) was “no effect”.

For the origin of these results see patent US20240166626A1, “Compounds and Methods for Preventing, Treating, or Ameliorating Airway Disease” (THOMAS JEFFERSON UNIVERSITY, priority 2021, published 2024).
